Experimental data as given in US8796249B2, “TGR5 modulators and methods of use thereof” (Intercept Pharmaceuticals, Inc., priority 2008, dated 2014).
Structures can show the parent of a compound that is named as a salt.

What was measured:
pancreatic esterases = assay: In vitro metabolic stability in simulated duodenal/pancreatic fluid; type: in vitro ADME, porcine
Protocol: This study has been performed for 2A since it contains an ester bond in the side chain and the aim was to verify the stability in presence of esterase enzymes like present in duodenal and pancreatic juice. Simulated pancreatic fluid was prepared by dissolving 10 g/L Pancreatin (Sigma P8096: pancreatin from porcine pancreas, activity 1× USP specifications) in 0.05M phosphate buffer, pH=7.2±0.1. Then, 4-mL aliquots of the simulated pancreatic fluid were added of […] of the studied BA and incubated for different times (0, 30, 60, 90, 120, 180 and 240 min) at 37° C. After incubation, a 2-mL aliquot of each solution was added with 2 mL of 0.1M NaOH and subjected to bile acids extraction by SPE and analysis by thin-layer chromatography and mass spectrometry as described above. […] Olive oil was used as a reference as reported in the USP protocol.

VDR = molecular target: T1, VDR (Homo sapiens, UniProt P11473); assay: NR selectivity assay VDR; conditions: unnamed ref standard 0.005 μM
T1 sequence (P11473 1-427): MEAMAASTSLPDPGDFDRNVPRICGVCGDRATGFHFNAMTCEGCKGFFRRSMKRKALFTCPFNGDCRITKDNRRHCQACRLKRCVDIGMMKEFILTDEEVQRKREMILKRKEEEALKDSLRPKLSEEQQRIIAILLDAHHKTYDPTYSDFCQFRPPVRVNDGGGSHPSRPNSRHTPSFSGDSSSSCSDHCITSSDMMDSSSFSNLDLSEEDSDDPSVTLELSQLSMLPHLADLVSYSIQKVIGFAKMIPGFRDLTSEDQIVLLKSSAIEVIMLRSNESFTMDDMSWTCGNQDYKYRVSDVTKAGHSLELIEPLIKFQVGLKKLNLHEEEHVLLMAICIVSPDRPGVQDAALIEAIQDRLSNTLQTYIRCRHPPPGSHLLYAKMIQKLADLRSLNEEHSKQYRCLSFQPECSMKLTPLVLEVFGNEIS

[1] = Biliary secretion, bile flow and metabolism in bile-fistula rat after duodenal (id) and femoral (iv) infusion; type: in vivo; conditions: for choleretic effect (bile flow): bile fistula rat
Protocol: To evaluate the mode and efficiency of the intestinal absorption the analogues were administered both intravenously (femoral infusion) and orally (duodenal infusion) at the same dose and their biliary secretion rate was evaluated in bile fistula rat model. The differences in the area under the curve of the biliary secretion vs time between iv and id administration account of its intestinal absorption and give information about its biovailability.
The bile fistula rat model was developed at the University of Bologna Lab facilities. The compound 3A was administered at a dose of 1 μmol/kg/min (1 hour infusion) to a rat group via duodenal infusion (id). Rat have a bile fistula to collect bile samples at different times before and during the infusion. For duodenal infusion experiment 3 rats (250±10 g) were treated. Bile samples were collected every 15 minutes for four hours. In addition, 3 control rats were treated with saline solution under the same conditions for times and sampling (duodenal control rats).
Duodenal infusion starts after 30 min baseline bile collection and continues for one hour.
For femoral infusion experiment, 3 rats were treated. […] Femoral infusion starts after 75 minutes of steady-state and continues for 60 min. Bile samples were collected every 15 minutes for four hours. In addition, 3 rats were treated with saline solution under the same conditions for times and sampling (femoral control rats).
Rat bile samples were brought to room temperature, briefly stirred, and diluted 1:100 v/v (bile samples from duodenal orinfusion) and 1:100 or 1:200 v/v (bile samples from femoral infusion) with 15 mM ammonium acetate buffer (pH=5.0):acetonitrile=70:30 (v/v). Final solution was transferred in autosampler vials, and 10 μL was injected into the chromatographic column.
Bile rat samples were analyzed by liquid chromatography-tandem mass spectrometry (HPLC-MS/MS) using electrospray (ESI) source in negative ionization mode. For liquid chromatography a Waters Alliance 2695 separation module coupled with autosampler was used. Autosampler was maintained at 7° C. Separation was performed on a Synergi Hydro-RP C18 column (150×2.0 mm i.d., 4 μm particle size), protected by a SecurityGuard ODS 4×2.0 mm i.d. precolumn, both supplied from Phenomenex. […]. Nitrogen was used as nebulizer gas at 90 L/h flow rate and as desolvation gas at 930 L/h. Ion source block and desolvation temperatures were set respectively to 80° C. and 180° C. Capillary voltage was 3.0 kV. MassLynx software version 4.0 was used for data acquisition and processing. In addition, using mass spectrometry both in single MS or tandem MS/MS configuration experiments were performed to identify metabolites.
A 5-point calibration curve was daily prepared and injected in duplicate. Calibration samples were obtained in the 0.1 to 25 μmol/L concentration range prepared in mobile phase. Linear calibration curve parameters were obtained from the plot of the analyte peak area versus analyte concentration using a least squares regression analysis (weight=1/x^2). Correlation coefficients were ≧0.989.
The data refer to the secretion rate of the analogues recovered in bile as such after duodenal and femoral infusion at a dose of 1 umol/Kg/min. Major and minor metabolites are reported later.
For a preliminary screening the search of the possible metabolites has been performed on the basis of the expected compounds according to previous experiments and data and to the structure and physicochemical properties of the studied analogues.

[2] = rat, duodenal infusion 1 umol/Kg/min 1 h, time 120 min
[3] = rat, duodenal infusion 1 umol/Kg/min 1 h, time 150 min
[4] = rat, duodenal infusion 1 umol/Kg/min 1 h, time 180 min
[5] = rat, duodenal infusion 1 umol/Kg/min 1 h, time 210 min
[6] = rat, duodenal infusion 1 umol/Kg/min 1 h, time 240 min
[7] = rat, duodenal infusion 1 umol/Kg/min 1 h, time 270 min
[8] = rat, duodenal infusion 1 umol/Kg/min 1 h, time 300 min
[9] = rat, femoral infusion 1 umol/Kg/min 1 h, time 90 min
[10] = rat, femoral infusion 1 umol/Kg/min 1 h, time 120 min
[11] = rat, femoral infusion 1 umol/Kg/min 1 h, time 150 min
[12] = rat, femoral infusion 1 umol/Kg/min 1 h, time 180 min
[13] = rat, femoral infusion 1 umol/Kg/min 1 h, time 210 min
[14] = rat, femoral infusion 1 umol/Kg/min 1 h, time 240 min

## CCC1C(O)C2C3CCC(C(C)CC(C)OS(=O)(=O)O)C3(C)CCC2C2(C)CCC(O)CC12 [Compound 2A, 3α,7α,23-trihydroxy-6α-ethyl-23(S)-methyl-24-nor-5β-cholan-23-sulfate Sodium Salt]
Pancreatic esterases; 10 g/L pancreatin, pH 7.2, 37° C., up to 240 min
  metabolic stability in simulated pancreatic fluid: very stable
Pancreatic esterases; simulated pancreatic fluid
  hydrolysis of ester bond (sulphate) by pancreatic esterases: not hydrolyzed
VDR
  VDR EC50: No

## CC[C@H]1[C@@H](O)[C@@H]2[C@H](C[C@H](O)[C@]3(C)[C@@H]([C@H](C)CCCS(=O)(=O)[O-])CC[C@@H]23)[C@@]2(C)CC[C@@H](O)C[C@@H]12.[Na+] [Compound 3A, 3α,7α,12α-trihydroxy-6α-ethyl-5β-cholan-24-sulfonate Sodium Salt]
other
  melting point: > 280 °C
[1]; duodenal infusion (id) 1 μmol/kg/min, 1 hour
  choleretic effect (bile flow): moderate choleretic effect
[1]; femoral infusion (iv), 60 min
  choleretic effect (bile flow): moderate choleretic effect
[1]; bile-fistula rat, iv and id
  hepatic and intestinal metabolism: not metabolized by the liver or by the intestine
[1]; rat, after id administration, recovery in bile much lower than after iv
  intestinal absorption: poorly absorbed by the intestine
[1]; rat, after iv administration
  recovery in bile: almost completely recovered in bile
[1]; [2]
  Conc. in bile: 370 µM
  Secretion (biliary): 0.026 µmol/kg/min
[1]; [3]
  Conc. in bile: 900 µM
  Secretion (biliary): 0.079 µmol/kg/min
[1]; [4]
  Conc. in bile: 1300 µM
  Secretion (biliary): 0.101 µmol/kg/min
[1]; [5]
  Conc. in bile: 950 µM
  Secretion (biliary): 0.061 µmol/kg/min
[1]; [6]
  Conc. in bile: 700 µM
  Secretion (biliary): 0.043 µmol/kg/min
[1]; [7]
  Conc. in bile: 580 µM
  Secretion (biliary): 0.039 µmol/kg/min
[1]; [8]
  Conc. in bile: 510 µM
  Secretion (biliary): 0.029 µmol/kg/min
[1]; [9]
  Conc. in bile: 2600 µM
  Secretion (biliary): 0.105 µmol/kg/min
[1]; [10]
  Conc. in bile: 7300 µM
  Secretion (biliary): 0.588 µmol/kg/min
[1]; [11]
  Conc. in bile: 7500 µM
  Secretion (biliary): 0.463 µmol/kg/min
[1]; [12]
  Conc. in bile: 6200 µM
  Secretion (biliary): 0.363 µmol/kg/min
[1]; [13]
  Conc. in bile: 3400 µM
  Secretion (biliary): 0.247 µmol/kg/min
[1]; [14]
  Conc. in bile: 1000 µM
  Secretion (biliary): 0.045 µmol/kg/min
VDR
  VDR EC50: No
